Assay results reported in patent US10016517B2, “Bioactive amphiphilic polymer stabilized nanoparticles with enhanced stability and activity” (RUTGERS, THE STATE UNIVERSITY OF NEW JERSEY, priority 2011, dated 2018).

Test system: human MDMs
Assay: DiO oxLDL uptake by PBMC derived macrophages
Type: cell-based
Settings: MDMs co-incubated with PEG-b-PLA NPs loaded with M12 and DiO oxLDL
Protocol: Peripheral blood mononuclear cells (PBMC) were isolated from human buffy coats (Blood Center of New Jersey; East Orange, N.J.) by Ficoll-Paque (1.077 g mL^−1; GE Healthcare) density gradient. Monocytes were selected by plate adherence after two hours by washing thrice with PBS and cultured for 7 days in RPMI 1640 (ATCC) with 10% FBS, 1% Penicillin/Streptomycin and 50 ng mL^−1 M-CSF for differentiation into macrophages (MDM). Media was exchanged every two to three days. Primary Human Coronary Artery Smooth Muscle Cells (CASMC) (Lonza) between passages 3-6 were cultured in SM-GM2 media (Lonza). CASMC were plated on Type I Collagen coated wells for cytotoxicity experiments. […]
Human MDMs were co-incubated with 5 μg mL^−1 of 3,3′-dioctadecyloxacarbocyanine (DiO) labeled oxLDL (Kalen Biomedical; Montgomery Village, Md.) and either NPs or micelles for 24 h in the presence of 0 (serum-free), 5, 10 or 20% FBS. […] Cells were fixed and counterstained with Hoechst 33342 before epifluorescent imaging on a Nikon Eclipse TE2000-S. Uptake of oxLDL in MDMs was quantified by ImageJ and normalized to cell count. Analyzed data were from three independent experiments performed in triplicate.
Inhibition of oxLDL uptake in human MDMs by AM NPs and analogous micellar systems were determined (FIG. 3B-C). […] Uptake of oxLDL in MDMs was determined by ImageJ analysis of epifluorescent images. […]

## mucic acid modified with lauroyl groups [M12]
  therapeutic efficacy towards inhibiting oxLDL uptake: no therapeutic efficacy
